Results on two compounds are retold here after article PMC8034185, “The rumen eukaryotome is a source of novel antimicrobial peptides with therapeutic potential” (BMC Microbiology, 2021).

Values after ≈ are worked out from the molar mass of the structure shown. Bridge positions count the residues as written; N and C are the ends. Square brackets hold non-standard residues; d marks the D form. Peptide text beside a SMILES is read from it. * marks the point of attachment. X1 = CC[C@H](C)CCCCC(=O)*; Dab = NCC[C@H](N)C(=O)O

Holding throughout (assay): microbe, parasite or virus in culture
The subject of one assay is E. coli K12. The class given is cell-based, Escherichia coli. As to conditions: modified broth microdilution, cation-adjusted Mueller Hinton broth, inoculum 5 × 10^5 CFU/mL, 18 h, quadruplicate, highest concentration tested 512 μg/mL. (In general: In broth dilution the organism is exposed to a series of concentrations in liquid medium.)
In the next assay the test system is Sal. Tyhimurium (SL1344). The class given is cell-based, Salmonella enterica serovar Typhimurium. As to conditions: modified broth microdilution, cation-adjusted Mueller Hinton broth, inoculum 5 × 10^5 CFU/mL, 18 h, quadruplicate, highest concentration tested 512 μg/mL.
A further assay has as its system P. aeruginosa PAO1. The format is cell-based, Pseudomonas aeruginosa. As to conditions: modified broth microdilution, cation-adjusted Mueller Hinton broth, inoculum 5 × 10^5 CFU/mL, 18 h, quadruplicate, highest concentration tested 512 μg/mL.
For a further assay, the system named is P. aeruginosa H174. The format is cell-based, Pseudomonas aeruginosa. As to conditions: modified broth microdilution, cation-adjusted Mueller Hinton broth, inoculum 5 × 10^5 CFU/mL, 18 h, quadruplicate, highest concentration tested 512 μg/mL.
The next assay deals with A. baumannii DSMZ 30007. The class given is cell-based, Acinetobacter baumannii. As to conditions: modified broth microdilution, cation-adjusted Mueller Hinton broth, inoculum 5 × 10^5 CFU/mL, 18 h, quadruplicate, highest concentration tested 512 μg/mL.
A further assay relates to A. baumannii S27379 Sen. The class given is cell-based, Acinetobacter baumannii. As to conditions: sensitive hospital isolate, modified broth microdilution, cation-adjusted Mueller Hinton broth, inoculum 5 × 10^5 CFU/mL, 18 h, quadruplicate, highest concentration tested 512 μg/mL.
For assay [1], the system named is A. baumannii S15785 OXA-23/0XA-50. The format is cell-based, Acinetobacter baumannii. As to conditions: modified broth microdilution, cation-adjusted Mueller Hinton broth, inoculum 5 × 10^5 CFU/mL, 18 h, quadruplicate, highest concentration tested 512 μg/mL.
The subject of the next assay is A. baumannii IMI/MER-R. The format is cell-based, Acinetobacter baumannii. As to conditions: imipenem/meropenem resistant, modified broth microdilution, cation-adjusted Mueller Hinton broth, inoculum 5 × 10^5 CFU/mL, 18 h, quadruplicate, highest concentration tested 512 μg/mL.

For the compound `C[C@H]1COc2c(N3CCN(C)CC3)c(F)cc3c(=O)c(C(=O)O)cn1c23` [Levofloxacin], the MIC came to 0.03 µg/mL (≈ 0.083 µM) with E. coli K12 (Escherichia coli, K12, read-out: Minimum Inhibitory Concentration, E. coli K12); 0.12 µg/mL (≈ 0.332 µM) in the assay on Sal. Tyhimurium (SL1344) (Salmonella enterica, read-out: Minimum Inhibitory Concentration, Sal. Tyhimurium); 0.06 µg/mL (≈ 0.166 µM) in the assay with P. aeruginosa PAO1 (Pseudomonas aeruginosa, PAO1, read-out: Minimum Inhibitory Concentration, P. aeruginosa PAO1); 0.5 µg/mL (≈ 1.38 µM) in the assay on P. aeruginosa H174 (Pseudomonas aeruginosa, H174, read-out: Minimum Inhibitory Concentration, P. aeruginosa H174); 0.25 µg/mL (≈ 0.692 µM) with A. baumannii DSMZ 30007 (Acinetobacter baumannii, DSMZ30007, read-out: Minimum Inhibitory Concentration, A. baumannii DSMZ 30007); 0.12 µg/mL (≈ 0.332 µM) in the assay on A. baumannii S27379 Sen (Acinetobacter baumannii, S27379SEN, read-out: Minimum Inhibitory Concentration, A. baumannii S27379 Sen). The MIC in assay [1] (Acinetobacter baumannii, read-out: Minimum Inhibitory Concentration, A. baumannii S15785 OXA-23/0XA-50) is more than 512 µg/mL; in the assay on A. baumannii IMI/MER-R (Acinetobacter baumannii, read-out: Minimum Inhibitory Concentration, A. baumannii IMI/MER-R), 256 µg/mL (≈ 708 µM).

Regarding `CC[C@H](C)CCCCC(=O)N[C@@H](CCN)C(=O)N[C@H](C(=O)N[C@@H](CCN)C(=O)N[C@H]1CCNC(=O)[C@H]([C@@H](C)O)NC(=O)[C@H](CCN)NC(=O)[C@H](CCN)NC(=O)[C@H](CC(C)C)NC(=O)[C@@H](Cc2ccccc2)NC(=O)[C@H](CCN)NC1=O)[C@@H](C)O` [Polymyxin B] (X1-[Dab]T[Dab][Dab][Dab][dF]L[Dab][Dab]T; lactam 4-C (inferred); N-terminus assumed), the “Minimum Inhibitory Concentration, E. coli K12” value in the assay on E. coli K12 was found to be 0.5 µg/mL. Moreover, in the assay with Sal. Tyhimurium (SL1344), the “Minimum Inhibitory Concentration, Sal. Tyhimurium” value stood at 1 µg/mL. Moreover, in the assay on P. aeruginosa PAO1, the “Minimum Inhibitory Concentration, P. aeruginosa PAO1” value was determined as 2 µg/mL. Moreover, the “Minimum Inhibitory Concentration, P. aeruginosa H174” value with P. aeruginosa H174 amounted to 1 µg/mL. Also, the “Minimum Inhibitory Concentration, A. baumannii DSMZ 30007” value in the assay with A. baumannii DSMZ 30007 was 1 µg/mL. Besides, the “Minimum Inhibitory Concentration, A. baumannii S27379 Sen” value with A. baumannii S27379 Sen was 1 µg/mL. Moreover, the “Minimum Inhibitory Concentration, A. baumannii S15785 OXA-23/0XA-50” value in assay [1] was 0.5 µg/mL. Moreover, the “Minimum Inhibitory Concentration, A. baumannii IMI/MER-R” value with A. baumannii IMI/MER-R stood at 1 µg/mL.
